Laboratory results as given in the NIST ThermoML archive (doi:10.1021/acs.jced.6b00202).
Numbers after ± are expanded uncertainties.

`COC(C)(C)C` [2-methoxy-2-methylpropane] gave a speed of sound (433.18 K, 4000 kPa, Liquid, Brillouin light scattering) of 498.5 ± 5.4 m/s, a speed of sound (433.22 K, 5500 kPa, Liquid, Brillouin light scattering) of 530.9 ± 6.3 m/s and a speed of sound (433.22 K, 8500 kPa, Liquid, Brillouin light scattering) of 586.5 ± 6.5 m/s. The speed of sound (438.11 K, 2500 kPa, Liquid, Brillouin light scattering) was 443 ± 5 m/s, the speed of sound (438.13 K, 7000 kPa, Liquid, Brillouin light scattering) was 540.4 ± 6.4 m/s and the speed of sound (438.13 K, 10000 kPa, Liquid, Brillouin light scattering) was 590.9 ± 6.5 m/s. The speed of sound (438.14 K, 5500 kPa, Liquid, Brillouin light scattering) was 507.9 ± 6.2 m/s, the speed of sound (438.16 K, 8500 kPa, Liquid, Brillouin light scattering) was 569 ± 6.4 m/s and the speed of sound (438.17 K, Gas, Brillouin light scattering) was 155.3 ± 1.8 m/s. It also gave a speed of sound (438.19 K, Liquid, Brillouin Light Scattering) of 405.8 ± 4.2 m/s, a speed of sound (438.24 K, 4000 kPa, Liquid, Brillouin light scattering) of 477.2 ± 5.2 m/s and a speed of sound (443.06 K, 4000 kPa, Liquid, Brillouin light scattering) of 454.3 ± 5 m/s. The speed of sound (443.08 K, 5500 kPa, Liquid, Brillouin light scattering) was 487.7 ± 6.1 m/s, the speed of sound (443.09 K, Liquid, Brillouin Light Scattering) was 387.3 ± 4 m/s and the speed of sound (443.12 K, 10000 kPa, Liquid, Brillouin light scattering) was 575 ± 6.5 m/s. The speed of sound (443.14 K, 8500 kPa, Liquid, Brillouin light scattering) was 548.7 ± 6.3 m/s, the speed of sound (443.18 K, 2500 kPa, Liquid, Brillouin light scattering) was 418.1 ± 4.7 m/s and the speed of sound (443.23 K, 7000 kPa, Liquid, Brillouin light scattering) was 519.9 ± 6.2 m/s. The speed of sound (448.06 K, 2500 kPa, Liquid, Brillouin light scattering) was 394.3 ± 4.6 m/s, the speed of sound (448.07 K, 5500 kPa, Liquid, Brillouin light scattering) was 467.5 ± 5.9 m/s and the speed of sound (448.13 K, Gas, Brillouin light scattering) was 148.4 ± 1.8 m/s. For the same compound, the speed of sound (448.16 K, 4000 kPa, Liquid, Brillouin light scattering) was 435.5 ± 4.9 m/s, the speed of sound (448.22 K, 7000 kPa, Liquid, Brillouin light scattering) was 500.2 ± 6.1 m/s and the speed of sound (448.23 K, 8500 kPa, Liquid, Brillouin light scattering) was 529.7 ± 6.2 m/s. It also gave a speed of sound (448.23 K, 10000 kPa, Liquid, Brillouin light scattering) of 557.1 ± 6.4 m/s, a speed of sound (448.23 K, Liquid, Brillouin Light Scattering) of 360.3 ± 3.8 m/s and a speed of sound (453.07 K, 5500 kPa, Liquid, Brillouin light scattering) of 448.8 ± 6 m/s. The speed of sound (453.1 K, Liquid, Brillouin Light Scattering) was 339.5 ± 3.6 m/s, the speed of sound (453.18 K, 4000 kPa, Liquid, Brillouin light scattering) was 411.5 ± 4.7 m/s and the speed of sound (453.18 K, 10000 kPa, Liquid, Brillouin light scattering) was 544 ± 6.2 m/s. The speed of sound (453.2 K, 2500 kPa, Liquid, Brillouin light scattering) was 372.4 ± 4.4 m/s, the speed of sound (453.21 K, 8500 kPa, Liquid, Brillouin light scattering) was 515.2 ± 6.2 m/s and the speed of sound (453.24 K, 7000 kPa, Liquid, Brillouin light scattering) was 483.8 ± 6.1 m/s. The speed of sound (458.06 K, 4000 kPa, Liquid, Brillouin light scattering) was 389.5 ± 4.5 m/s, the speed of sound (458.08 K, 7000 kPa, Liquid, Brillouin light scattering) was 464.6 ± 6.1 m/s and the speed of sound (458.12 K, 10000 kPa, Liquid, Brillouin light scattering) was 524.8 ± 6.1 m/s. It also gave a speed of sound (458.18 K, 2500 kPa, Liquid, Brillouin light scattering) of 350.8 ± 4.2 m/s, a speed of sound (458.19 K, Liquid, Brillouin Light Scattering) of 313.6 ± 3.3 m/s and a speed of sound (458.22 K, 8500 kPa, Liquid, Brillouin light scattering) of 497.9 ± 6 m/s. For the same compound, the speed of sound (458.24 K, 5500 kPa, Liquid, Brillouin light scattering) was 426.1 ± 5.9 m/s, the speed of sound (458.29 K, Gas, Brillouin light scattering) was 139.8 ± 1.7 m/s and the speed of sound (463.1 K, 10000 kPa, Liquid, Brillouin light scattering) was 507.9 ± 5.9 m/s. It also gave a speed of sound (463.13 K, 2500 kPa, Liquid, Brillouin light scattering) of 326.7 ± 4.1 m/s, a speed of sound (463.14 K, 8500 kPa, Liquid, Brillouin light scattering) of 480.9 ± 5.9 m/s and a speed of sound (463.16 K, 5500 kPa, Liquid, Brillouin light scattering) of 409.6 ± 5.9 m/s. The speed of sound (463.17 K, Gas, Brillouin light scattering) was 135.7 ± 1.7 m/s, the speed of sound (463.23 K, 4000 kPa, Liquid, Brillouin light scattering) was 368.2 ± 4.4 m/s and the speed of sound (463.23 K, Liquid, Brillouin Light Scattering) was 287.1 ± 3.1 m/s. It also gave a speed of sound (463.25 K, 7000 kPa, Liquid, Brillouin light scattering) of 445.2 ± 5.9 m/s, a speed of sound (468.06 K, 7000 kPa, Liquid, Brillouin light scattering) of 427.3 ± 5.8 m/s and a speed of sound (468.1 K, 10000 kPa, Liquid, Brillouin light scattering) of 491.9 ± 6.2 m/s. For the same compound, the speed of sound (468.15 K, 8500 kPa, Liquid, Brillouin light scattering) was 459.5 ± 5.8 m/s, the speed of sound (468.18 K, Liquid, Brillouin Light Scattering) was 265 ± 2.9 m/s and the speed of sound (468.19 K, 4000 kPa, Liquid, Brillouin light scattering) was 347.2 ± 4.3 m/s. The speed of sound (468.22 K, 5500 kPa, Liquid, Brillouin light scattering) was 389.7 ± 5.9 m/s, the speed of sound (468.26 K, Gas, Brillouin light scattering) was 130.6 ± 1.6 m/s and the speed of sound (473.07 K, 4000 kPa, Liquid, Brillouin light scattering) was 324.5 ± 4.1 m/s. The speed of sound (473.11 K, 10000 kPa, Liquid, Brillouin light scattering) was 479 ± 6.2 m/s, the speed of sound (473.12 K, 8500 kPa, Liquid, Brillouin light scattering) was 443.1 ± 5.9 m/s and the speed of sound (473.15 K, 7000 kPa, Liquid, Brillouin light scattering) was 408.5 ± 5.9 m/s. The speed of sound (473.15 K, Gas, Brillouin light scattering) was 124.5 ± 1.6 m/s, the speed of sound (473.17 K, Liquid, Brillouin Light Scattering) was 236.5 ± 2.6 m/s and the speed of sound (473.22 K, 5500 kPa, Liquid, Brillouin light scattering) was 366 ± 5.9 m/s. For the same compound, the speed of sound (478.08 K, Gas, Brillouin light scattering) was 119 ± 1.6 m/s, the speed of sound (478.08 K, Liquid, Brillouin Light Scattering) was 206.1 ± 2.3 m/s and the speed of sound (483.2 K, Liquid, Brillouin Light Scattering) was 177.7 ± 2.1 m/s. The speed of sound (483.29 K, Gas, Brillouin light scattering) was 111.8 ± 1.5 m/s, the speed of sound (488.11 K, Liquid, Brillouin Light Scattering) was 142.8 ± 1.9 m/s and the speed of sound (488.15 K, Gas, Brillouin light scattering) was 104.9 ± 1.5 m/s. For the same compound, the speed of sound (493.06 K, Liquid, Brillouin Light Scattering) was 103.7 ± 1.6 m/s and the speed of sound (493.15 K, Gas, Brillouin light scattering) was 96.9 ± 1.4 m/s.
